# In patent publication US12459951B2, “Compounds that interact with RAS superfamily proteins for treatment of cancers, inflammatory diseases, rasopathies, and fibrotic disease” (SHY Therapeutics, LLC, priority 2022, dated 2025):
# Legend:
# [1] = tested on: LS123 (expressing KRas G12S mutant); test: Proliferation Assay (Cell Viability Assay); format: cell-based; conditions: Homo sapiens, LS-123, colon
# Description: (§1) Cell lines: these Human tumor-derived cell lines were purchased from American Type Culture Collection. Human tumor-derived pancreatic cancer cell line MiaPaca-2 (expressing KRAS G12C mutant) and Panc-1 (expressing KRas G12D mutant), and Human non-small cell lung cancer (NSCLC) cell line A549 (expressing KRas G12S mutant), and Human melanoma cell line A375 (wild type Kras) were grown in complete DMEM-High Glucose medium. Human tumor-derived pancreatic cancer cell lines SU86.86 (expressing KRas G12D mutant), BxPC3 (expressing wild type K-Ras), and Human non-small cell lung cancer (NSCLC) cell lines NCI-H441 (expressing KRas G12S mutant), NCI-H1975 (expressing wild type KRas), NCI-H358 (expressing KRas G12C mutant), NCI-H1299 (expressing NRas Q61H mutant), and Human colon cancer cell line SW-620 (expressing KRas G12V mutant), Human triple negative breast cancer cell line HCC-1806 (expressing wild type KRas), and Human tumor-derived multiple myeloma cell line MM.1R (expressing wild type KRAS), were grown in RPMI 1640 medium. Human tumor-derived breast cancer cell line BT-549 (expressing wild type KRAS) was grown in RPMI 1640 medium in the presence of 11.8U insulin. Human tumor-derived pancreatic cancer cell line HPAF-II (expressing KRas G12D mutant), Human triple negative breast cancer cell line BT-20 (expressing wild type KRas), and Human colon cancer cell line LS123 (expressing KRas G12S mutant), were grown in EMEM medium. Human tumor-derived pancreatic cancer cell line CF-PAC1 (expressing KRas G12V mutant) was frown in IMDM medium, and Human colon cancer cell line HT29 (expressing wild type KRas) was grown in McCoy's 5A medium. The colon cancer cell line GP2d (expressing KRas G12D mutant) was purchased from MilliporeSigma and grown in DMEM-High Glucose medium. All cell lines were supplemented with penicillin (100 U/mL), streptomycin (100 μg/mL), and 10% heat-inactivated FBS at 37° C. in a humidified incubator with 5% CO2.
# (§2) Method: Cells were plated at 2000 to 5000 cells/well density in 96-wells plate and cultured overnight. Small molecules that were tested were added to the cells in the final concentration of 10 μM in the presence of 0.3% DMSO and 10% FBS, and incubated for 2-4 days at 37° C. in a humidified incubator with 5% CO2. For IC50 value determination, serial dilutions of compounds were added to cells under the same conditions.
# (§3) Assay: At the end of the incubation period, cell viability was determined using the CellTiter 96® Aqueous One Solution Cell Proliferation Assay according to manufacturer specifications (Promega, Madison, WI). The percentage of small molecules inhibition of cellular proliferation was calculated from raw data.
# [2] = tested on: CF-PAC1 (expressing KRas G12V mutant); test: Proliferation Assay (Cell Viability Assay); format: cell-based; conditions: Homo sapiens, CFPAC-1, CF-PAC1, pancreatic
# Description: as §1, §2, §3
# [3] = tested on: BxPC3 (expressing wild type K-Ras); test: Proliferation Assay (Cell Viability Assay); format: cell-based; conditions: Homo sapiens, BXPC-3; BxPC3, pancreatic, KRas WT
# Description: as §1, §2, §3
# [4] = tested on: A549 (expressing KRas G12S mutant); test: Proliferation Assay (Cell Viability Assay); format: cell-based; conditions: Homo sapiens, A549, NSCLC
# Description: (§4) Cell lines: Human tumor-derived cell lines were purchased from American Type Culture Collection. Human tumor-derived pancreatic cancer cell line MiaPaca-2 (expressing KRAS G12C mutant) and Panc-1 (expressing KRas G12D mutant), and Human non-small cell lung cancer (NSCLC) cell line A549 (expressing KRas G12S mutant) were grown in complete DMEM-High Glucose medium. Human colon cancer cell line SW-620 (expressing KRas G12V mutant) was grown in RPMI 1640 medium. All cell lines were supplemented with penicillin (100 U/mL), streptomycin (100 μg/mL), and 10% heat-inactivated FBS at 37° C. in a humidified incubator with 5% CO2.
# as §2, with “to be” for “that were”, “FBS” for “FBS,”
# as §3, §1, §2
# [5] = tested on: SW-620 (expressing KRas G12V mutant); test: Proliferation Assay (Cell Viability Assay); format: cell-based; conditions: Homo sapiens, SW-620, colon
# Description: as §4
# as §2, with “to be” for “that were”, “FBS” for “FBS,”
# as §3, §1, §2
# [6] = tested on: Panc-1 (expressing KRas G12D mutant); test: Proliferation Assay (Cell Viability Assay); format: cell-based; conditions: Homo sapiens, Panc1, pancreatic
# Description: as §4
# as §2, with “to be” for “that were”, “FBS” for “FBS,”
# as §3, §1, §2
# [7] = tested on: NCI-H358 (expressing KRas G12C mutant) tumors; test: In vivo efficacy in NCI-H358 (G12C) model; set-up: species or system Athymic Nude-Foxn1 nu mice; conditions: daily dose 50 mg/kg
# Description: Biological Example 8: In Vivo Efficacy of Compound 6 in NCI-H358 (G12C) Model
# Cell lines: Human tumor-derived non-small cell lung cancer cell lines NCI-H358 (expressing KRas G12C mutant was grown in RPMI-1640 Medium, ATCC 30-2001, supplemented with 10% fetal bovine serum (FBS) and Penicillin/Streptomycin 100U/ml (Lonza BioWhittaker, Morrisville, NC). Cells were trypsinized, washed in sterile PBS, counted, and resuspended in a 1:1 mix PBS/HC Matrigel (Corning, Glendale, AZ) at a concentration of 25×10^6/ml. Cells were kept on ice until injection.
# The right flank of Athymic Nude-Foxn1 nu mice (The Jackson Laboratory, Harbor, ME) was injected subcutaneously with 5×10^6 cells in 200 μl of sterile PBS/Matrigel solution. Tumor mass was first measured 4 days after injection and mice were randomized on the basis of these measurements. Treatment was begun when tumors reached 150-200 mm^3, ^˜5-8 days after injection. Compound 6 was formulated in 20% captisol (50 mM citrate buffer, PH 5.0), and mice received either daily dose of vehicle or 50 mg/kg body weight of the formulated compound 6. Tumors were measured using digital calipers and volume (v) was calculated using the formula V=(W(2)×L)/2 where V is tumor volume, W is tumor width, and L is tumor length. Mice were housed in accordance with IACUC guidelines. The calculated Tumor Growth Inhibition (TGI) was 80%.
# active/cleaved caspase 9 = test: Cell-based caspase activation assay (western blot); set-up: species or system human
IC50 [3],IC50 [4],IC50 [5],IC50 [6],Weight loss ([7]; NCI-H358 tumor-bearing nude mice),SMILES,IC50 [1],IC50 [2],"Tumor Growth Inhibition (TGI) ([7]; NCI-H358 subcutaneous tumors in nude mice, 20% captisol formulation)","Caspase 9 activation (active/cleaved caspase 9; HCC1806, after 48 hours)","Caspase 9 activation (active/cleaved caspase 9; NCI-H358, after 48 hours)"
< 150 nM,510 to 1000 nM,150 to 500 nM,< 150 nM,No weight loss was detected,"COc1cc(Nc2nc(-c3nccn3C)nn3cc(-c4ccn(C(C)C)n4)c(C)c23)ncn1 [Compound 6, 6-(1-Isopropyl-1H-pyrazol-3-yl)-N-(6-methoxypyrimidin-4-yl)-5-methyl-2-(1-methyl-1H-imidazol-2-yl)pyrrolo[2,1-f][1,2,4]triazin-4-amine]",< 150 nM,< 150 nM,80%,,
,,,,,"Cc1c(-c2ccn(C)n2)cn2nc(-c3nccn3C)nc(Nc3cc4n(n3)CCO4)c12 [Compound 124, N-(5-Methyl-2-(1-methyl-1H-imidazol-2-yl)-6-(1-methyl-1H-pyrazol-3-yl)pyrrolo[2,1-f][1,2,4]triazin-4-yl)-2,3-dihydropyrazolo[5,1-b]oxazol-6-amine]",,,,yes,yes
